Paper PMC6234094 (Bioorganic & medicinal chemistry, 2018)

Legend:
QscR [1] = target: T1, QscR (Pseudomonas aeruginosa, UniProt G3XD77); assay: QscR agonism, E. coli JLD271; assay type: cell-based; settings: for Reduction in potency relative to OdDHL (1) in QscR: ratio of EC50 to that of OdDHL, QscR reporter; for QscR agonism, result in words: E. coli QscR reporter
LasR [2] = settings: cited from earlier work
LasR [3] = target: T2, LasR (Pseudomonas aeruginosa, UniProt P25084); assay: LasR agonism, E. coli JLD271; assay type: cell-based; settings: for Loss in potency (EC50) relative to OdDHL (1) in LasR: ratio of EC50 to that of OdDHL, LasR reporter
T2 sequence (P25084 whole entry): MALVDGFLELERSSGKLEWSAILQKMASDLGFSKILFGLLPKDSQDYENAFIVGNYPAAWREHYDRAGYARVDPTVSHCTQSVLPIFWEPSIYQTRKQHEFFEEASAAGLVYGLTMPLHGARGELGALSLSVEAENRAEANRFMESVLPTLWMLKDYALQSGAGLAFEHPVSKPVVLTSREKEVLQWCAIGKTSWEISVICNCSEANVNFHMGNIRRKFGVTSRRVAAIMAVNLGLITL

QscR [4] = target: T1, QscR; assay: QscR antagonism in competition with OdDHL, E. coli reporter assay; assay type: cell-based
QscR [5] = target: T1, QscR; settings: cited from earlier work
LasR [6] = target: T2, LasR; assay: LasR antagonism in competition with OdDHL, E. coli reporter assay; assay type: cell-based; settings: dose response in competition against OdDHL (1)

SMILES	Reduction in potency relative to OdDHL (1) in QscR (QscR [1])	LasR agonism, result in words (earlier report) (LasR [2])	Loss in potency (EC50) relative to OdDHL (1) in LasR (LasR [3])	QscR agonism, result in words (QscR [1])	other results
CCCCCCCCCC(=O)CC(=O)N[C@H]1CCSC1=O [Compound 3]	five-fold less potent	agonize LasR comparably to OdDHL	–	–	–
CCCCCCCCCC(=O)CC(=O)N[C@H]1CCNC1=O [Compound 4]	> 200 fold	–	10–20 fold	–	Potency in LasR relative to OdDHL based on EC50 (earlier report) (LasR [2]; less potent than OdDHL): about 100 fold
CCCCCCCCCC(=O)CC(=O)N[C@H]1CCCC1=O [Compound 5]	~ 55 fold	retained agonistic activity in LasR but was not nearly as potent as OdDHL	10–20 fold	–	–
CCCCCCCCCC(=O)CC(=O)NC1CCCC1 [Compound 6]	24 fold	some agonistic activity	100 fold	–	–
CCCCCCCCCC(=O)CC(=O)N[C@H]1CCOC1 [Compound 7]	–	–	600 fold	–	–
CCCCCCCCCC(=O)CC(=O)N[C@H]1CCO[C@@H]1O [Compound 8]	–	–	~ 1200 fold	very weak QscR agonist	Concentration at which LasR is agonized (earlier report) (LasR [2]; only at very high concentrations): 400 µM
CCCCCCCCCC(=O)CC(=O)NCC1CCCO1 (centres unmarked) [Compound 9]	–	–	–	negligible activity	IC50 (QscR [4]): > 250 µM
CCCCCCCCCCCS(=O)(=O)N[C@H]1CCOC1=O [Compound 10]	–	–	–	weak agonistic activity	QscR activity, result in words (earlier report) (QscR [5]): mild agonist; LasR antagonism, result in words (LasR [6]): failed to antagonize LasR; LasR activity, result in words (earlier report) (LasR [2]): inactive; LasR agonism, result in words (LasR [3]; E. coli LasR reporter): inactive
CCCCCCCCCC(=O)CC(=O)O[C@H]1CCOC1=O [Compound 11]	–	–	–	–	IC50 (QscR [4]): > 250 µM
